Test results published in US6090605A, “Purified porcine kidney L-fucose kinase” (The Board of Trustees of the University of Arkansas, priority 1998, dated 2000).
Values belong to the compound of their own block, whether it stands above or below them.

How the values were obtained:
pig kidney fucokinase [1] = biological target: T1, pig kidney fucokinase (Sus scrofa, UniProt I3LTC2); assay: Specificity of fucokinase for phosphate donor (nucleotides); format: biochemical; details: for activity as phosphate donor (in words): nucleotide added at 1 mM
T1 construct: L-Fucokinase was purified to apparent homogeneity from the cytosolic fraction of pig kidney; from tissue; host or cells: pig kidney, cytosolic fraction
T1 sequence (I3LTC2 1-1083): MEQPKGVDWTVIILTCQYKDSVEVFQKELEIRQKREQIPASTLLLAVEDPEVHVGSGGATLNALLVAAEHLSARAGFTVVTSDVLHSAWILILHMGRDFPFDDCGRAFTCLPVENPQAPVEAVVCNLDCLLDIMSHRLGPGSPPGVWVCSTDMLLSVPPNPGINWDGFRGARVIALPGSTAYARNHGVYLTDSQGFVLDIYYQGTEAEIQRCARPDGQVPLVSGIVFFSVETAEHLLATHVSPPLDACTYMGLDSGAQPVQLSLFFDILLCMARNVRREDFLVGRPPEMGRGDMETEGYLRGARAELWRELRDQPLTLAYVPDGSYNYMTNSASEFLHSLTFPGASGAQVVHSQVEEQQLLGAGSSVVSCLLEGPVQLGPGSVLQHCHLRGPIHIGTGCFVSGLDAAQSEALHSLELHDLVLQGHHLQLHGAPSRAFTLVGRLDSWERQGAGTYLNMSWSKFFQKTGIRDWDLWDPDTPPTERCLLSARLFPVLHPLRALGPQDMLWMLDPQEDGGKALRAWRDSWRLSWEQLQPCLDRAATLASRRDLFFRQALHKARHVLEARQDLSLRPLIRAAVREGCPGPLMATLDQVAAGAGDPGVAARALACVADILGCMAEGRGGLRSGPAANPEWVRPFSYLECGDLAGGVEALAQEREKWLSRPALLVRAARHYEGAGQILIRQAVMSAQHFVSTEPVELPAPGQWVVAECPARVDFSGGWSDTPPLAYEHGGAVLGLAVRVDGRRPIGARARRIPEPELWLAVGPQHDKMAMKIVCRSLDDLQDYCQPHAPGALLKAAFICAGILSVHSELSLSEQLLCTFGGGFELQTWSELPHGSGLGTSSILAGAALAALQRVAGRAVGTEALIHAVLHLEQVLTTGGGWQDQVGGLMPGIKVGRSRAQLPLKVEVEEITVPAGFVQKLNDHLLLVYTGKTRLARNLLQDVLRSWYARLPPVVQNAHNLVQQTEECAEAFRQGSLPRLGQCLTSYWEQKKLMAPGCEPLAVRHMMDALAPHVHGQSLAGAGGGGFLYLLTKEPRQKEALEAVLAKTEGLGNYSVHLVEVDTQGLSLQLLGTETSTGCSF
Experimental: (§1) Fucokinase activity was assayed by measuring the production of L-fucose-1-Pfrom [^3 H]L-fucose and ATP. The incubation mixtures contained the following components (final concentrations) in a total volume of 150 μl: L-fucose, 0.1 mM; ATP, 5 mM; MgSO4, 5 mM; Tris-HCl buffer, pH 8.0, 65 mM; and various amounts of enzyme at the different stages of purification. Incubations were at 37° C. for 10 minutes, and reactions were terminated by heating the reaction mixtures in a boiling water bath for 1 minute. The incubation mixtures were then applied to a column of DE-52 contained in a Pasteur pipette, and the column was washed with at least 5 column volumes of 10 mM (NH4)HCO3 to remove the unbound material. The [^3 H]fucose-1-P was then eluted with 500 mM (NH4)HCO3. Aliquots of the eluates were assayed for their radioactive content by subjecting a portion to scintillation counting.
The specificity of the nucleoside triphosphate was also examined by testing the ability of a variety of nucleotides to serve as phosphate donors in the phosphorylation of [^3 H]L-fucose. […] In addition, no activity is observed with any nucleoside diphosphates or monophosphates.

pig kidney fucokinase [2] = biological target: T1, pig kidney fucokinase; assay: Effect of metal ions on fucokinase activity; format: biochemical; details: for effect on activity when added to incubations containing Mg++ (in words): metal ion at 1 mM
Experimental: Increasing concentrations of the metal ions shown were added to incubations of the purified enzyme with ^3 H-fucose and ATP, and the formation of fucose-1-P was measured as described below. Metal ions tested were as follows: Mg^++, filled circles; Fe^++, filled diamonds; Co^++, filled triangles; Mn^++, filled squares.
as §1
Co^++ and Mn^++ were also stimulatory with maximum activity occurring at about 3 to 5 mM, but the maximum activity was only about 25% to 33% of that observed with Mg^++.

[3] = tested on: pig liver L-fucokinase preparation; details: cited from earlier work
pig kidney fucokinase [4] = biological target: T1, pig kidney fucokinase; assay: Inhibition of [3H]L-fucose phosphorylation by unlabeled monosaccharides; format: biochemical; details: for Relative Activity (%): unlabeled monosaccharide 500 μM, radiolabeled L-fucose substrate 100 μM; for inhibition of phosphorylation of [3H]L-fucose (in words): unlabeled sugar 500 μM
Experimental: as §1
Although it was possible to get a reasonable assessment of the sugar specificity of the kinase from the above experiment, it was not possible to test sugars such as D-fucose, since these sugars are not available in radioactive form. Thus, these unlabeled sugars were tested for their ability to inhibit the phosphorylation of [^3 H]L-fucose. The rationale for this experiment is that a sugar that inhibits the phosphorylation of L-fucose would probably compete with L-fucose for the phosphorylation (i.e., active) site.

pig kidney fucokinase [5] = biological target: T1, pig kidney fucokinase; assay: Sugar specificity of purified fucokinase (radiolabeled sugars as phosphate acceptors); format: biochemical; details: radiolabeled sugar 100 μM as phosphate acceptor
Experimental: as §1
The specificity of the kinase for various sugar substrates was examined in two different ways. In the first set of experiments, various radiolabeled sugars were tested as phosphate acceptors for the purified enzyme using the ion-exchange chromatography method for assay of activity. […] D-Arabinose, which has the same configuration at carbons 1 through 4 as L-fucose, was also a reasonable substrate for phosphorylation, and was about 10% as effective as L-fucose. On the other hand, all of the other sugars were ineffective as phosphate acceptors.

SMILES: O=c1ccn([C@@H]2O[C@H](COP(=O)(O)O)[C@@H](O)[C@H]2O)c(=O)[nH]1 [UMP]
- activity as phosphate donor (in words) (pig kidney fucokinase [1]): Inactive

SMILES: [Fe+2] [Fe^++]
- metal ion concentration at optimum (maximum) activity (pig kidney fucokinase [2]): about 10 mM
- stimulation of enzyme activity by metal ion (in words) (pig kidney fucokinase [2]): nearly the same degree as Mg^++

SMILES: Nc1ccn([C@@H]2O[C@H](COP(=O)(O)OP(=O)(O)OP(=O)(O)O)[C@@H](O)[C@H]2O)c(=O)n1 [CTP]
- use as phosphate donor (in words) [3]: could also use
- Specific Activity (pig kidney fucokinase [1]; nucleotide added at 1 mM as phosphate donor): 0.05 nmoles/mg protein/10 min

SMILES: Nc1nc2c(ncn2[C@@H]2O[C@H](COP(=O)(O)O)[C@@H](O)[C@H]2O)c(=O)[nH]1 [GMP]
- activity as phosphate donor (in words) (pig kidney fucokinase [1]): Inactive

SMILES: [Cu+2] [Cu^++]
- stimulation of enzyme activity by metal ion (in words) (pig kidney fucokinase [2]): inactive
- effect on activity when added to incubations containing Mg++ (in words) (pig kidney fucokinase [2]): completely inhibited activity

SMILES: Nc1ncnc2c1ncn2[C@@H]1O[C@H](COP(=O)(O)O)[C@@H](O)[C@H]1O [AMP]
- activity as phosphate donor (in words) (pig kidney fucokinase [1]): Inactive

SMILES: [Ni+2] [Ni^++]
- stimulation of enzyme activity by metal ion (in words) (pig kidney fucokinase [2]): inactive

SMILES: [Zn+2] [Zn^++]
- stimulation of enzyme activity by metal ion (in words) (pig kidney fucokinase [2]): inactive
- effect on activity when added to incubations containing Mg++ (in words) (pig kidney fucokinase [2]): completely inhibited activity

SMILES: [Mg+2] [Mg^++]
- stimulation of enzyme activity by metal ion (in words) (pig kidney fucokinase [2]): gave the best stimulation

SMILES: Nc1ccn([C@@H]2O[C@H](COP(=O)(O)O)[C@@H](O)[C@H]2O)c(=O)n1 [CMP]
- activity as phosphate donor (in words) (pig kidney fucokinase [1]): Inactive

More lines, main results first:

- activity as phosphate donor (in words) (pig kidney fucokinase [1]): Inactive
SMILES: Nc1nc2c(ncn2[C@@H]2O[C@H](COP(=O)(O)OP(=O)(O)O)[C@@H](O)[C@H]2O)c(=O)[nH]1 [GDP]

- Relative Activity (%) (pig kidney fucokinase [4]): 102%
SMILES: C[C@@H](O)[C@@H](O)[C@H](O)[C@H](O)C=O [D-rhamnose]

- Relative Activity (%) (pig kidney fucokinase [4]): 92%
- inhibition of phosphorylation of [3H]L-fucose (in words) (pig kidney fucokinase [4]): ineffective as inhibitors
SMILES: O=CC[C@@H](O)[C@H](O)[C@H](O)CO [2-deoxy-D-glucose]

- Relative Activity (%) (pig kidney fucokinase [4]): 103%
- Specific Activity (pig kidney fucokinase [5]): 0 nmole/mg protein
SMILES: O=C[C@H](O)[C@@H](O)[C@H](O)CO [D-xylose]

- inhibition of phosphorylation of [3H]L-fucose (in words) (pig kidney fucokinase [4]): ineffective as inhibitors
SMILES: C[C@H](O)[C@H](O)[C@@H](O)[C@@H](O)C=O [L-rhamnose]
- phosphorylation of sugar by the about 70-fold purified preparation (in words) [3]: considerable activity for phosphorylating
